Patent US7550438B2, “Methods for production of growth-promoting proteins and peptides for kidney epithelial cells” (The University of Chicago, priority 1997, dated 2009)

Key:
[1] = test system: kidneys of rats given mercuric chloride; test: BrdU labeling of DNA synthesis in kidneys of rats given mercuric chloride; format: in vivo, rat; details: 14-Ser 100 μg 24 hours before mercuric chloride; 1 hour BrdU labeling 24 hours after
Experimental: To determine if the beneficial effects of 14-Ser peptide on survival and renal function were the result of the mitogenic action of the peptide, DNA synthesis was measured in the kidneys of rats given mercuric chloride. 5-Bromo-2′-deoxyuridine (BrdU), a nonradioactive analog of thymidine that is incorporated into DNA was used to label nuclei. A monoclonal antibody to BrdU and diamidobenzidene staining were used to detect nuclei undergoing DNA synthesis in histological sections of renal tissue. BrdU was dissolved in 20% ethanol and was injected intra-peritoneally 23 hours after administration of mercuric chloride. One hour later the kidneys were quickly perfused with a warm solution of phosphate-buffered saline via an aortic catheter to eliminate red blood cells from the organ and maintain potency of the renal tubules. The capsule was removed from the kidneys which were the bisected longitudinally, and fixed in formalin for 4 hours, and then in 70% ethanol. Tissue sections were prepared and BrdU-labeled nuclei were detected as described above.
In the kidneys of a rats given mercuric chloride, extensive necrosis of tubular cells of the terminal portion (S3) of the proximal nephron was observed, as expected in this well-characterized model system. The extent of necrosis was somewhat variable from rat-to-rat but was always confined to the aglomerular cortex. […]

[2] = test system: rats with mercuric chloride-induced acute renal failure; test: Mercuric chloride-induced acute renal failure in rats: survival and renal function; format: in vivo, rat; details: for survival 7 days later: single dose s.c. 1 hour after mercuric chloride
Description: Nephrotoxic and ischemic acute renal failure (ARF) induced experimentally in rats have long been used to model this syndrome in humans. […] Male rats weighed 200-225 gm at the start of the experiment. This dose was used because preliminary experiments indicated it results in survival of 25-50% of the animals 7 days later. […] An increase in serum creatinine concentration signals a decline in renal function because the injured kidney is unable to excrete endogenous creatinine in the urine so it accumulates in the blood.
The synthetic peptide […] (14-Ser) (SEQ ID NO: 15) (dissolved in sterile 0.01% bovine serum albumin in phosphate-buffered saline) was injected subcutaneously into rats to determine its effect on survival, recovery of renal fucntion, and stimulation of DNA synthesis. Multiple different peptides were studied including 14-Ser, […] (14-mer) (SEQ ID NO: 39), […] (16-mer) (SEQ ID NO: 4) […] (11-mer) (SEQ ID NO: 6), and […] (11-mer) (SEQ ID NO: 41). Different concentrations and times of administration were tested and compared.
Acute tubular necrosis was induced in 44 rats by the subcutaneous (s.c.) injection of mercuric chloride, and a single dose of 14-ser was administered s.c. 1 hour afterwards. Different amounts of the peptide were given to assesses its capacity to affect the outcome. Survival 7 days later was about twice as high in animals given 100-150 μg of peptide (63%) than in rats given 0-75 μg peptide (29%).
To determine the effect of the peptide on survival and recovery of renal function, acute tubular necrosis was induced in 59 rats; 29 received 14-Ser (100 μg/rat) and 30 received an equal volume of the vehicle s.c. 1 hour after administration of mercuric chloride. Enhanced survival (top panel) and renal functional recovery (bottom panel) of rats give a WGF-derived peptide after mercuric chloride-induced acute tubular necrosis are shown in FIG. 2A and FIG. 2B. Mercuric chloride was injected subcutaneously into each of the 59 rats, and 1 hour later 100 μg of WGF peptide (14-Ser) (n=29 rats) or the vehicle […] was given. Survival was greater in rats given the peptide than in animals receiving the vehicle as early as day 3 after administration of mercuric chloride. Blood was obtained from the tail vein on the days indicated, and serum creatinine concentration was measured. […] On days 2, 3 and 4, the lower creatinine concentration in peptide-treated rats indicates accelerated recovery of kidney function.
Experimental ARF was induced in rats by subcutaneous injection of mercuric chloride. The synthetic peptide […] […] In one experiment a total of 17 rats were injected with a dose of mercuric chloride shown to induce ARF. The different amounts of the peptide (known to stimulate growth of kidney cells in culture) were injected into the animals to assess capacity to improve the outcome. […] In contrast, two of three rats given 100 micrograms of peptide were alive, as were five of six given 200 micrograms. In summary, none of eight rats (0%) given up to 50 micrograms of peptide survived, whereas seven of nine (78%) given 100-200 micrograms did. Thus, the 11-mer WGF peptide improves survival in nephrotoxic ARF.
[…] Four days later, 63% of rats given the 14-Ser peptide were alive compared to 25% of animals receiving the vehicle (chi squared, P-0.0499); 50% of rats receiving EGF were alive (chi squared, P=N.S.). On day 5, 50% of rats given EGF were alive, compared to 12.5% of animals given the vehicle (chi squared, P=0.0436). […] These observations indicate that the 14-Ser peptide and EGF given after renal injury are similar in their ability to improve survival from the ARF syndrome.

AQPYPQGNHEASYG
BrdU-labeled nuclei adjacent to the zone of tubular cell necrosis [1]: many more labeled nuclei
survival 7 days later ([2]; 0-75 μg peptide): 29%
recovery of renal function on days 3 and 4 ([2]; 100 μg/rat s.c. 1 hour after mercuric chloride): significantly more rapid recovery
serum creatinine concentration on day 2 compared to vehicle ([2]; 100 μg/rat s.c. 1 hour after mercuric chloride, P=0.034): significantly lower
serum creatinine concentration on day 1 ([2]; 100 μg/rat s.c. 1 hour after mercuric chloride, basal 0.5, similar with vehicle): 2.3 mg/dL
survival compared to vehicle 3 days after onset of ARF ([2]; 100 μg/rat s.c. 1 hour after mercuric chloride, chi squared P=0.035): significantly greater
survival by day 7 ([2]; 100 μg/rat s.c. 1 hour after mercuric chloride, vehicle 20%): 48%
survival on day 6 ([2]; 14-Ser 100 μg 1 hour after, EGF 20 μg 2 hours after mercuric chloride, vehicle 12%): 37.5%
survival four days later ([2]; 14-Ser 100 μg s.c. 1 hour after, EGF 20 μg s.c. 2 hours after mercuric chloride 2.25 mg/kg, vehicle 25%): 63%
survival 7 days later ([2]; 100-150 μg of peptide): 63%
renal function (serum creatinine) on day 3 compared to vehicle ([2]; given 24 hours before mercuric chloride, P=0.039): significantly better
